Consider 21 molecules from US20120192315A1, “RESISTANCE GENES AND PROTEINS ACTIVE AGAINST FUSARIUM ROOT ROTS, CYST NEMATODES AND SOYBEAN SUDDEN DEATH SYNDROME AND METHODS EMPLOYING SAME” (Southern Illinois University Carbondale, priority 2011, published 2012).

Experiment [1] concerns the target GmRLK18-1 LRR domain (RHG1). Briefly: Binding of CLE like peptides to purified LRR domain of the RLK at rhg1/Rfs2, titration by luminescence spectrometry. The arrangement: species or system Glycine max. An excerpt: (§1) The full length rhg1/Rfs2 or Rhg4 cDNA from the SCN resistant cultivar, ‘Forrest’ (Bruker et al. 2005), was sub-cloned in pGEM-T vector. For the rhg1/Rfs2 LRR DNA was PCR amplified using internal primers. Primers were designed to copy and amplify a 1032 bp region encompassing the 10 LRRs of rhg1. The sense primer 141-485F: 5′-[…]-3′ contained an eight base linker followed by an NcoI restriction site (in bold) to allow in-frame cloning into the expression vector pET30A (+). A factor Xa site (underlined) was incorporated in the sense primer in order to cleave the fusion protein. The anti-sense primer 141-485R: 5′-[…]-3′ contained a six base linker followed by an XhoI restriction site (in bold). The stop codon (underlined) was added to the primer sequence to terminate the RHG1 translation. The amplicon obtained by PCR was isolated by agarose gel electrophoresis and purified using gel elution. The amplified fragment was subcloned into pGEMT vector by ligation of the 3′T vector overhang with the 3′A added by Taq polymerase during template amplification. The complementarity between the vector 3′T overhangs and the PCR product 3′A overhangs allowed for direct ligation of PCR products into the vector. pGEMT vector was transformed into DH5a cells, positive colonies were selected and grown overnight in 5 ml of 2-fold YT medium. The recombinant plasmid DNA was purified using the Qiagen mini-prep kit.
About […] of the LRR sub-clone plasmid DNA was digested with NcoI and XhoI. Purified insert was ligated overnight at 16° C. using T4 DNA ligase into a XhoI/NcoI predigested pET30a (+) vector. The ratio of insert DNA to plasmid DNA was 3:1. The construct contained the hexa-his inframe with the Factor Xa vector site and 5′ end of the insert. The recombinant plasmid was transformed into DH5a cells. Positive colonies were selected on 2-fold YT plates supplemented with 50 μg/ml kanamycin and screened by digestion of mini-prep plasmid DNA with NcoI and XhoI followed by agarose gel electrophoresis. The nature of the inserts were also verified by DNA sequence analysis using the ABI 377 DNA sequencer (Foster City, Calif.).
A Quikchange site directed mutagenesis kit (Stratagene) was used for RLSH generation. Both sense and anti-sense primers were designed to loop out the 114 bp nucleotide linker region between the hexa-his tag and the first codon of RLLH. The forward primer DMF1: 5′-[…]-3′ and reverse primer DMR1: 5′-[…]-3′ were complementary in sequence and annealed to opposite stands of DNA. Amplification of template was performed with Pfu-Turbo DNA polymerase. Following amplification, the parent DNA (methylated and hemi-methylated) was digested with DpnI endonuclease (target sequence: 5′-Gm6ATC-3′). The amplified vector DNA containing the desired deletion was transformed into XL1-Blue competent cells and the cells were grown overnight in 2XYT supplemented with 50 μg/ml tetracycline and 50 μg/ml kanamycin. Colonies were picked, grown overnight, DNA purified and inserts identified by digestion of plasmid DNA with NdeI and XhoI followed by 2% (w/v) agarose gel electrophoresis. DNA was subsequently sequenced to verify looping out of the RLLH linker region. DNA from positive clones was transformed into BL21 (DE3-RIL) competent cells.
BL21-CodonPlus™-RIL series of strains contain extra copies of the E. coli argU, ileY, and leuW tRNA genes. The modification allowed for high expression of proteins that were difficult to express in conventional E. coli hosts due to the codon usage bias of the gene of interest. RHG1 protein contained 18 codons rarely used in E. coli in the LRR alone (Table 3.1). The 5 ml of LB overnight culture containing Rhg1/Rfs2 LRR or Rhg4 LRR was transferred to 1 L of M9 minimal media supplemented with ammonium sulfate and kanamycin. The cells were grown at 37° C. to an O.D of 1.0. The protein was induced with 0.4 mM IPTG and incubated at 16° C. in an orbital shaker for 18-20 h. […]

Experiment [2] deals with GmRLK8-1 LRR domain (RHG4). The experiment in a line: Binding of CLE like peptides to purified LRR domain of the RLK at Rhg4, titration by luminescence spectrometry. Details: species or system Glycine max.
Excerpt: as §1
BL21-CodonPlus™-RIL series of strains contain extra copies of the E. coli argU, ileY, and leuW tRNA genes. The modification allowed for high expression of proteins that were difficult to express in conventional E. coli hosts due to the codon usage bias of the gene of interest. RHG1 protein contained 18 codons rarely used in E. coli in the LRR alone (Table 3.1). The 5 ml of LB overnight culture containing Rhg1/Rfs2 LRR or Rhg4 LRR was transferred to 1 L of M9 minimal media supplemented with ammonium sulfate and kanamycin. The cells were grown at 37° C. to an O.D of 1.0. The protein was induced with 0.4 mM IPTG and incubated at 16° C. in an orbital shaker for 18-20 h.
Proteins were solubilized from IBs, purified and refolded by the method described by Afzal and Lightfoot 2007, Protein Expression and Purification 53: 346-355. They were produced as in Example 9 and used for Far Western identification of interacting root proteins (FIGS. 4 & 5) and for identification of preferred ligands among small peptides found in root phloem (Table 4).

Experiment [3] is described as follows: Exogenous peptide treatment of plants. Particulars: phenotypes: transient wilting, increased plant vigor, increased disease resistance. The format is in vivo.
The next experiment concerns GmRLK18-1 LRR domain. The experiment in a line: Far-Western analysis of soybean root proteins probed with the LRR domain of GmRLK18-1. The format is binding, Glycine max. Particulars: 2D gel of SCN inoculated root proteins of NIL 34-23; MS identification.
Experiment [4] deals with T1, purified GmRLK18-1 LRR domain (6x his-RHG1) (Glycine max).
T1 chain: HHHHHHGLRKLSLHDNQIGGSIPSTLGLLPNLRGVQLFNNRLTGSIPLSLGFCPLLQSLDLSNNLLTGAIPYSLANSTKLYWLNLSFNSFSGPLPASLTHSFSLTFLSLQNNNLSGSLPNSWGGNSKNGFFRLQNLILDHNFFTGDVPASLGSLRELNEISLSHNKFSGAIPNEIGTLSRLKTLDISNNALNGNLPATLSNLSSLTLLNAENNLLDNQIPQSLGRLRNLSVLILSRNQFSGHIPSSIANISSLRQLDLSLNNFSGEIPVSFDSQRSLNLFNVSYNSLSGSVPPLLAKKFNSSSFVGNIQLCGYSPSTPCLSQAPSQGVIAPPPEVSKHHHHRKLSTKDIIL
Briefly: fluorescence (luminescence spectrometry) titration of peptide with purified LRR domain, in vitro.

In experiment [5] the target is GmRLK8-1 LRR domain (from the RLK protein at Rhg4) (Glycine max). Described as above.
Experiment [6] has as its target T1, purified GmRLK18-1 LRR domain (6x …). Briefly: fluorescence (luminescence spectrometry) titration of peptide with purified LRR domain, in vitro; apparent Kd for dimerization.
The mark [7] stands for this setting: purified LRR domain, binding constants calculated from titration experiments, read-out: Kd (nM) RHG4.
[8] abbreviates: purified LRR domain, binding constants calculated from titration experiments, read-out: Kd (nM) RHG1.

Entries after “also recorded” stand apart in the source; their conditions may differ. Where two headings read alike, the source gives them in different places. Where no end group is shown, it is not given here.

Regarding AHEVPSGPNPISNR [T, AHEVPSGPNPISNR], the Kd in experiment [1] (assays in vitro, read-out: binding constants, GmRLK18-1-LRR) is 20 nM; in experiment [2] (setting [7]) it was 204 nM. For the same molecule, the “binding by the GmRLK8-1 LRR domain protein, in words” value in experiment [2] (assays in vitro) is recorded as “bound weakly”. Also, in experiment [3], the “effect as exogenous treatment” value was “effective”.
With CTLSRLKTLDISNNALNGNLPATLSNLS [L], the Kd is 36 nM in experiment [1] (estimated from the peptide with one diverged LRR motif, read-out: apparent Kd for dimerization) and 135 nM in experiment [2] (setting [7]).
Take DLPLAPADRLAPGGPDPQHNVRAPPRKP [2L]: the Kd in experiment [1] (setting [8]) is 142 nM; in experiment [2] (setting [7]), 338 nM.
Turning to KGLGLHEELRTVPSGPDPLHHHVNPPRQPR [3L], the results for the Kd in experiment [1] (setting [8]) and in experiment [2] (setting [7]) were 65 nM and 142 nM, respectively.
Take KRLSPSGPDPHHH [N, KRLSPSGPDPHHH]: the “binding by the GmRLK18-1 derived LRR peptide, in words” value in experiment [1] (assays in vitro) was “strong binding constant”. Besides, the Kd is 30 nM in experiment [1] (setting [8]) and 78 nM in experiment [2] (assays in vitro, read-out: affinity, GmRLK8-1 LRR domain). In experiment [3], the “effect as exogenous treatment” value is “effective”.
On to RAELDFNYMSKRRVPNGPDPIHNRRAGNSGR [36L], for which the Kd in experiment [1] (setting [8]) was 49 nM; in experiment [2] (setting [7]) it was 51 nM.
“RLAPEGPDPHHN [compound 30, RLAPEGPDPHHN]”: in experiment [1] (assays in vitro), the “binding by the GmRLK18-1 derived LRR peptide, in words” value is “bound weakly”. Besides, the Kd in experiment [1] (setting [8]) was 44 nM; in experiment [2] (setting [7]), 84 nM. In addition, the “binding by the GmRLK8-1 LRR domain protein, in words” value in experiment [2] (assays in vitro) is given as “bound very weakly”.
On to RLAPGGPDPQHN [compound 2, RLAPGGPDPQHN], for which the Kd in experiment [1] (setting [8]) was 45 nM; in experiment [2] (setting [7]), 96 nM. In addition, the “binding by the GmRLK8-1 LRR domain protein, in words” value in experiment [2] (assays in vitro) is reported as “bound very weakly”.
Take RTVPSGPDPLHH [compound 3, RTVPSGPDPLHH]: in experiment [1] (assays in vitro), the “binding by the GmRLK18-1 derived LRR peptide, in words” value is listed as “strong binding constant”. The Kd is 29 nM in experiment [1] (setting [8]) and 50 nM in experiment [2] (setting [7]).
As for “SKRRVPNGPDPIHNR [compound 36, SKRRVPNGPDPIHNR]”, the results for the Kd in experiment [1] (setting [8]) and in experiment [2] (setting [7]) were 14 nM and 52 nM, respectively.
For “cyclophilin: soybean cyclophilin, GenBank gi 17981611, binds the purified LRR domain”, the “binding to the GmRLK18-1 LRR domain in Far-Western” value in the experiment with GmRLK18-1 LRR domain is “bound strongly; also recorded: interacting partner”.
Turning to KRLSPSGPDPHHH (modifications not checked) [peptide N (HgCLV3)], the results for the Kd in experiment [4] and in experiment [5] were 30 nM and 78 nM, respectively.
For DLPLAPADRLAPGGPDPQHNVRAPPRKP (modifications not checked) [peptide 2L (GmNIC1, LjCLE-R2 and LjCLE-R1)] the same measures were 142 nM and 338 nM.
For RTVPSGPDPLHH (modifications not checked) [peptide 3 (GmCLE3, AtCLE3, AtClv3 unmodified)], the Kd was determined as 29 nM in experiment [4] and 50 nM in experiment [5].
RLAPEGPDPHHN (modifications not checked) [peptide 30 (GmCLE30, GmRIC1)]: the Kd is 44 nM in experiment [4] and 84 nM in experiment [5].
For RAELDFNYMSKRRVPNGPDPIHNRRAGNSGR (modifications not checked) [peptide 36L (GmCLE34, AtCLE36, MtCLE36)] the same measures were 49 nM and 51 nM.
Take AHEVPSGPNPISNR (modifications not checked) [peptide T (GmTDIF, ZeTDIF)]: the Kd in experiment [4] is 20 nM; in experiment [5], 204 nM.
Taken in the same sequence, the figures for KGLGLHEELRTVPSGPDPLHHHVNPPRQPR (modifications not checked) [peptide 3L (GmCLE3, AtCLE3, AtClv3 unmodified)] were 65 nM and 142 nM.
Take SKRRVPNGPDPIHNR (modifications not checked) [peptide 36 (GmCLE34, AtCLE36, MtCLE36)]: the Kd in experiment [4] was determined as 14 nM; in experiment [5] it was 52 nM.
For RLAPGGPDPQHN (modifications not checked) [peptide 2 (GmNIC1, LjCLE-R2 and LjCLE-R1)] the same measures were 45 nM and 96 nM.
Turning to CTLSRLKTLDISNNALNGNLPATLSNLS (modifications not checked) [peptide L (GmLRR, GmRLK18-1)], the Kd stood at 36 nM in experiment [6] and 135 nM in experiment [5].
